# Assay results published in patent US20100022531A1, “NOVEL COMPOUNDS AS P2X7 MODULATORS AND USES THEREOF” (RENOVIS, INC., priority 2005, published 2010).
# Like-named read-outs stand apart in the source and are kept apart here.
# Biological target: T1, P2X7 receptor (Homo sapiens, UniProt Q99572)
# T1 construct: host or cells: THP-1 cells differentiated with LPS and IFN-γ
# T1 sequence (Q99572 1-595): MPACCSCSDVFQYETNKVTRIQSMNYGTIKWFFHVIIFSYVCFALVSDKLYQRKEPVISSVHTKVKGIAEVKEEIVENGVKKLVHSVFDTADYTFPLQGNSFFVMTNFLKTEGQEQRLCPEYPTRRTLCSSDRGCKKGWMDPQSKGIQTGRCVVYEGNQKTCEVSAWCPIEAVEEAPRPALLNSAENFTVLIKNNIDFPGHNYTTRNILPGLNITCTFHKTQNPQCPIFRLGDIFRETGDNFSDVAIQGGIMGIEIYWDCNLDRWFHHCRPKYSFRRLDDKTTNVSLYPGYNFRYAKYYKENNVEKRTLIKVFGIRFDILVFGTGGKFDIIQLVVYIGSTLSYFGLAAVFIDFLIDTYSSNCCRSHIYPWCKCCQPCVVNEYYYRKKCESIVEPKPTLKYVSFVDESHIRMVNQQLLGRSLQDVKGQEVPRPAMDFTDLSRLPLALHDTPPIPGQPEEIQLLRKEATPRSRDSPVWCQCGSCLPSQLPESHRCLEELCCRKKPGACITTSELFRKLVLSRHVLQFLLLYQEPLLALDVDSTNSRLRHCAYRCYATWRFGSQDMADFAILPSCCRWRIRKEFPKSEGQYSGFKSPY
# Assay: Alternate method for IL-1β release assay (differentiated THP-1 cells, BzATP-stimulated, ELISA)
# Assay type: cell-based
# Conditions: for inhibition at 0.1 µM: read-out: IL-1β % inhib @ 0.1 μM
# How it was run: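 After 16 h differentiation with 100 ng/mL LPS and 100 ng/mL IFN-γ plus a further 2 h LPS priming, THP-1 cells were pretreated 30 min with compound, then stimulated with 250 uM BzATP (final) for 45 min. Supernatant IL-1β measured by ELISA; percent inhibition from background-adjusted levels versus untreated cells.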
# [1] = P2X7, 0.3 μM compound (asterisk symbols), read-out: IL-1β % inhib @ 0.3 μM
# [2] = P2X7, 0.3 μM compound (symbols * to ****), read-out: IL-1β % inhib @ 0.3 μM
# [3] = P2X7, 0.1 μM compound (symbols + to ++++)
smiles,measurement,setting,value
Cc1nn(-c2ccccc2)nc1C(=O)N1CCc2c(ncnc2NCC23CC4CC(CC(C4)C2)C3)C1 [Compound 128],inhibition at 0.3 µM,[1],> 75%
CCCCN(C)CC(=O)N1CCc2c(ncnc2NCC2C3CC4CC(C3)CC2C4)C1 (stereo not shown) [Compound 288],inhibition at 0.3 µM,[2],50 to 75%
CC(C)(C)C(=O)N1CCc2c(ncnc2NCC23CC4CC(CC(C4)C2)C3)C1 [Compound 107],inhibition at 0.3 µM,[1],50 to 75%
"O=C(COc1ccc(OC(F)(F)F)cc1)N1CCc2c(ncnc2NCC23CC4CC(CC(C4)C2)C3)C1 [Compound 251, 1-{4-[(Adamantan-1-ylmethyl)-amino]-5,8-dihydro-6H-pyrido[3,4-d]pyrimidin-7-yl}-2-(4-trifluoromethoxy-phenoxy)-ethanone]",inhibition at 0.1 µM,[3],0 to 25%
O=C(OCc1c(F)cccc1F)N1CCc2c(ncnc2NCC23CC4CC(CC(C4)C2)C3)C1 [Compound 338],inhibition at 0.1 µM,[3],> 75%
O=S(=O)(c1cc(Cl)cc(Cl)c1)N1CCc2c(ncnc2NCC23CC4CC(CC(C4)C2)C3)C1 [Compound 65],inhibition at 0.3 µM,[1],0 to 25%
Brc1ccccc1CN1CCc2c(ncnc2NCC23CC4CC(CC(C4)C2)C3)C1 [Compound 228],inhibition at 0.3 µM,[2],0 to 25%
O=S(=O)(c1ccc(Cl)cc1)N1CCc2c(ncnc2NCC23CC4CC(CC(C4)C2)C3)C1 [Compound 11],inhibition at 0.3 µM,[1],0 to 25%
O=C(c1cccc(F)c1)N1CCc2c(ncnc2NCC23CC4CC(CC(C4)C2)C3)C1 [Compound 83],inhibition at 0.1 µM,"P2X7, 0.1 μM compound (plus symbols)",> 75%
Cc1nn(C)c(C)c1S(=O)(=O)N1CCc2c(ncnc2NCC23CC4CC(CC(C4)C2)C3)C1 [Compound 54],inhibition at 0.3 µM,[1],0 to 25%
"O=S(=O)(c1ccccc1)N1CCc2c(ncnc2NCC23CC4CC(CC(C4)C2)C3)C1 [Compound 4, Adamantan-1-ylmethyl-(7-benzenesulfonyl-5,6,7,8-tetrahydro-pyrido[3,4-d]pyrimidin-4-yl)-amine]",inhibition at 0.3 µM,"P2X7, read-out: IL-1β % inhib @ 0.3 μM",50 to 75%
FC(F)(F)Oc1ccc(CN2CCc3c(ncnc3NCC34CC5CC(CC(C5)C3)C4)C2)cc1 [Compound 231],inhibition at 0.3 µM,[2],0 to 25%
c1nc2c(c(NCC34CC5CC(CC(C5)C3)C4)n1)CCN(CC1CCCCC1)C2 [Compound 167],inhibition at 0.3 µM,[1],> 75%
CCCCCN1CCc2c(ncnc2NCC23CC4CC(CC(C4)C2)C3)C1 [Compound 169],inhibition at 0.3 µM,[1],> 75%
Brc1cc2c(cc1CN1CCc3c(ncnc3NCC34CC5CC(CC(C5)C3)C4)C1)OCO2 [Compound 198],inhibition at 0.3 µM,[2],0 to 25%
CN(CC(=O)N1CCc2c(ncnc2NCC2C3CC4CC(C3)CC2C4)C1)Cc1ccncc1 (stereo not shown) [Compound 319],inhibition at 0.3 µM,[2],25 to 50%
CC(C)CCN1CCc2c(ncnc2NCC23CC4CC(CC(C4)C2)C3)C1 [Compound 194],inhibition at 0.3 µM,[1],25 to 50%
O=S(=O)(c1cccc2cccnc12)N1CCc2c(ncnc2NCC23CC4CC(CC(C4)C2)C3)C1 [Compound 7],inhibition at 0.3 µM,[1],> 75%
CN(CC(=O)N1CCc2c(ncnc2NCC2C3CC4CC(C3)CC2C4)C1)Cc1ccc(C(F)(F)F)cc1 (stereo not shown) [Compound 317],inhibition at 0.3 µM,[2],25 to 50%
"CC(C)(C)OC(=O)N[C@@H](Cc1ccccc1)C(=O)N1CCc2c(ncnc2NCC(O)C23CC4CC(CC(C4)C2)C3)C1 (stereo partly drawn) [Compound 709, {(S)-2-[4-(2-Adamantan-1-yl-2-hydroxy-ethylamino)-5,8-dihydro-6H-pyrido[3,4-d]pyrimidin-7-yl]-1-benzyl-2-oxo-ethyl}-carbamic acid tert-butyl ester]",inhibition at 0.03 µM,"P2X7, at 0.03 μM (asterisk symbols), read-out: IL-1β % inhib @ 0.3 μM or @ 0.03 μM",0 to 25%
O=C(OCc1ccccc1Cl)N1CCc2c(ncnc2NCC23CC4CC(CC(C4)C2)C3)C1 [Compound 339],inhibition at 0.1 µM,[3],> 75%
O=S(=O)(c1ccc(Oc2ccncc2)cc1)N1CCc2c(ncnc2NCC23CC4CC(CC(C4)C2)C3)C1 [Compound 31],inhibition at 0.3 µM,[1],25 to 50%
